Test system: IL 1-induced release of neutral protease from rabbit articular chondrocytes
Experiment: Inhibition of IL 1-induced release of neutral protease from rabbit articular chondrocytes (azocoll degradation)
Type: cell-based, rabbit (New Zealand White)
Details: Oryctolagus cuniculus, Chondrocyte, test compound 10 min. prior to human IL 1, 24 h after IL 1 stimulation, read-out: % Inhibition (I.S.D.)
Procedure: The ability of the compounds of the inventions to inhibit interleukin 1 is measured by the ability of the test compounds to inhibit the IL 1-induced release of neutral protease from rabbit articular chondrocytes.
Male New Zealand White rabbits are anesthetized with 50 mg/kg of ketamine (i.m.) and killed by an intracardiac injection of 3 mls. of Nembutal. The knee joints of both legs are resected and the articular surfaces are exposed. Cartilage slices are obtained using scalpel and are placed in a tissue culture dish (100 mm diameter) containing 10 mls of Hank's balanced salt solution (HBSS). The chondrocytes within the cartilage slices are then liberated by a series of enzyme digestions. The slices are incubated for 10 min. at 37° C. in 0.05% hyaluronidase (Sigma H-3884), rinsed with HBSS and incubated with 0.2% trypsin (Sigma T-2395) for 10 min. at 37° C. The slices are rinsed again and incubated for 10 mins. at 37° C. with 1.2% collagenase (Sigma C-5138). The slices are then rinsed again with HBSS and resuspended in 10 ml of Ham's F-12 medium containing 10% fetal bovine calf serum (FCS) and 0.2% collagenase and incubated overnight at 37° C. in a 5% CO2 incubator. The next day, the medium containing the digested cartilage fragments and liberated chondrocytes is transferred to a 15 ml centrifuge tube and the cells are collected by centrifugation and washed twice and resuspended in Ham's F-12 medium. The cells are then plated into 24-well tissue culture plates (2×10^5 cells/well) and incubated at 37° C. until confluent (usually 4-6 days).
The confluent chondrocytes are rinsed twice with serum-free Ham's F-12 medium and 1 ml is added to each well. Fifty μl of purified human IL 1 (100 Units/ml; Genzyme Corporation, Boston, MA) is then added to stimulate these cells to secrete neutral protease. To measure drug effects, the cells are treated with test compound 10 min. prior to addition of IL 1. The standard screening dose is 10 μM. Twenty-four hours after IL 1 stimulation, supernatant fluids are collected and assayed for neutral protease activity.
The neutral protease activity of chondrocyte supernatant fluids is determined by their ability to degrade an insoluble protease substrate, azocoll (Sigma). Supernatants are treated for 10 min. at room temperature with 350 μM p-aminophenylmercuric acetate to activate the latent enzyme. Three hundred μl of supernatant is then mixed with 500 μl of a 20 mg/ml suspension of azocoll and incubated at 37° C. for 18-24 hrs. with gentle rocking. The mixtures are centrifuged and the amount of substrate hydrolyzed is determined by measuring the absorbance of the supernatant at 520 nm.
Drug effects are calculated as the % change in enzyme activity (absorbance)by supernatants from drug-treated chondrocytes relative to enzyme activity of supernatants from vehicle-treated chondrocytes as follows: [formula]

Structure (SMILES)	inhibition at 0.1 µM [%]	inhibition at 1 µM [%]	inhibition at 10 µM [%]
CS(=O)(=O)c1ccc(N2CCC(N3CCCC3)CC2)cc1 [Example 2, 1-[4-(Methylsulfonyl)phenyl]-4-(1-pyrrolidinyl)piperidine]	22	87	91
N#Cc1ccc(N2CCC(N3CCCC3)CC2)cc1 [Example 1, 4-[4-(1-Pyrrolidinyl)-1-piperidinyl]benzonitrile]	48	57	26

Reference: patent US4902800A, “1-Substituted-4-pyrrolidinopiperidines as inhibitors of interleukin 1” (American Home Products Corporation, priority 1988, dated 1990)
